What was measured:
Type in all cases: cell-based
[1] = system: human iPS cells (1231A3 strain); test: Immunostaining for pluripotent stem cell marker Oct3/4 after preconditioning; conditions: 1 day; SB431542 5 μM, LDN193189 100 nM, SAG 300 nM, or SB431542 5 μM and LDN193189 100 nM; positive = intensity not less than 2 times background
Protocol: Human iPS cells (1231A3 strain) were subjected to feeder-free culturing according to the method described in Example 1 in StemFit medium until one day before subconfluence. The human iPS cells one day before subconfluence were subjected to feeder-free culturing in the presence of SB431542 (TGFβR inhibitor, 5 μM), LDN193189 (BMPR inhibitor, 100 nM), SAG (Shh activating substance, 300 nM), or TGFβR inhibitor and BMPR inhibitor (SB431542 5 μM, and LDN193189 100 nM) (step 1: preconditioning treatment), or in the absence thereof (step 1: without preconditioning) for 1 day. The obtained cells were each fixed with 4% para-formaldehyde, and immunostaining for Oct3/4, which is one of the pluripotent stem cell markers, was performed and the immunostained cells were subjected to bright field observation and fluorescence image observation under an inverted fluorescence microscope (BIOREVO, KEYENCE).

[2] = system: human iPS cells (1231A3 strain); test: Immunostaining of aggregate sections for retinal tissue markers Chx10, Rx
Protocol: Here, as step 3, culturing was performed under the following condition 1 and condition 2: Under condition 1(+BMP), on day 6 after the start of suspension culturing, the medium was changed to a medium free of Y27632 and containing human recombinant BMP4 (manufactured by R&D) such that the final concentration of exogenous human recombinant BMP4 was 1.5 nM (55 ng/ml) (FIG. 6B, D). Under condition 2(−BMP), on day 6 after the start of suspension culturing, a half amount of the medium was changed to a medium free of Y27632 and free of a BMP signal transduction pathway activating substance, without adding exogenous human recombinant BMP4 (FIG. 6A, C).
The thus-prepared cell aggregates on day 23 after the start of suspension culturing, which were produced from the above iPS cells that underwent a preconditioning treatment in step 1 as a starting material were fixed with 4% para-formaldehyde to prepare frozen sections. These frozen sections were immunostained for Chx10 (anti-Chx10 antibody, Exalpha, sheep), which is one of the retinal tissue markers, or Rx (anti-Rx antibody, Takara, guinea pig), which is one of the retinal tissue markers. These immunostained sections were observed under an inverted fluorescence microscope.
Cell aggregate were prepared according to the method described in Example 8 under conditions in which human iPS cells using StemFit medium as a feeder-free medium were used as a starting material, TGFβR inhibiting substance (SB431542) or BMPR inhibiting substance (LDN193189) was used in step 1, Shh signal transduction pathway activating substance was used in step 2, and BMP signal transduction pathway activating substance was added or not added in step 3. Neural tissues were formed in all the aggregates formed under all these conditions on day 23 after the start of suspension culturing. The above cell aggregates were fixed with 4% para-formaldehyde to prepare frozen sections. These frozen sections were immunostained for Chx10 (anti-Chx10 antibody, Exalpha, sheep), which is one of the retinal tissue markers, or Rx (anti-Rx antibody, Takara, guinea pig), which is one of the retinal tissue markers. These immunostained sections were observed under an fluorescence microscope. […] Furthermore, it was found from the analysis of serial sections that, in a neural tissue having a high (not less than 95%) proportion of Chx10-positive cells, Rx is also strongly positive (FIG. 9B, D, F, H).
Cell aggregates were prepared according to the method described in Example 10 by using, as a starting material, human iPS cells using Essential 8 medium as a feeder-free culturing, under conditions that TGFβR inhibiting substance (SB431542) are used in step 1, a Shh signal transduction pathway activating substance are used in step 2, and a BMP signal transduction pathway activating substance are added or are not added in step 3. The cell aggregates on day 18 after the start of suspension culturing were each fixed with 4% para-formaldehyde to prepare frozen section. These frozen sections were immunostained for Chx10 (anti-Chx10 antibody, Exalpha, sheep), which is one of the retinal tissue markers, or Rx (anti-Rx antibody, Takara, guinea pig), which is one of the retinal tissue markers, and observed under a fluorescence microscope. […] Furthermore, it was found from the analysis of serial sections that, in a neural tissue having a high (not less than 95%) proportion of Chx10-positive cells, Rx is also strongly positive. […]
A Cell aggregate was formed on day 18 after the start of suspension culturing under every conditions, and a neural tissue was formed (FIG. 14, upper panel). The above cell aggregates on day 18 after the start of suspension culturing were each fixed with 4% para-formaldehyde to prepare frozen section. […]

[3] = system: human iPS cells (1231A3 strain); test: Form of cell aggregate in suspension culturing, bright field observation (good / medium / bad form); conditions: step 1 for 1 day: SB431542 5 μM or LDN193189 100 nM; day 9
[4] = Essential 8 medium, SB431542 in step 1, SAG in step 2, addition of BMP4 in step 3, day 18
[5] = Essential 8 medium, SB431542 in step 1, SAG in step 2, no addition of BMP4 in step 3, day 18
[6] = SB431542 or LDN193189 in step 1, SAG 300 nM in step 2, BMP4 1.5 nM in step 3, StemFit, day 23
[7] = LDN193189 100 nM in step 1, no SAG in step 2, BMP4 1.5 nM on day 6 in step 3, day 23
[8] = LDN193189 100 nM in step 1, no SAG in step 2, without BMP4 in step 3, day 23

Structure (SMILES): CNC1CCC(N(Cc2cccc(-c3ccncc3)c2)C(=O)c2sc3ccccc3c2Cl)CC1 (stereo not shown) [SAG]
- Oct3/4 immunostaining of preconditioned cells [1]: Oct3/4-positive
- proportion of Chx10-positive cells in the total cells ([2]; A83-01 0.5 μM and SAG 300 nM in step 1, substance added in step 2 (SAG 30 nM, Purmorphamine 0.2 μM or human recombinant Shh 300 ng/ml), BMP4 1.5 nM on day 3, day 20): about 90%

Structure (SMILES): NC(=O)c1ccc(-c2nc(-c3ccc4c(c3)OCO4)c(-c3ccccn3)[nH]2)cc1 [SB431542, 4-(5-benzol[1,3]dioxol-5-yl-4-pyridin-2-yl-1H-imidazol-2-yl)-benzamide]
- Oct3/4 immunostaining of preconditioned cells [1]: Oct3/4-positive
- proportion of Chx10-positive cells in the total cells [2, 4]: ≥ 20%
- proportion of Rx-strong positive cells in the total cells [2, 4]: ≥ 30%
- Rx-strong positive (corresponding to retina) [2, 5]: less than 3%
- Rx-weak positive (corresponding to neural tissue other than retina) [2, 5]: less than 7%
- proportion of Chx10-positive cells [2, 5]: less than 3%
- proportion of Rx-positive cells in the total cells [2, 5]: less than 10%
- proportion of Chx10-positive cells in the total cells [2, 6]: ≥ 70%
- proportion of Rx-positive cells in the total cells [2, 6]: ≥ 80%
- shape of cell aggregate in step 3 compared with untreated group [3]: good shape of cell aggregate

Structure (SMILES): c1ccc2c(-c3cnn4cc(-c5ccc(N6CCNCC6)cc5)cnc34)ccnc2c1 [LDN193189, 4-[6-(4-piperazin-1-ylphenyl)pyrazolo[1,5-a]pyrimidin-3-yl]quinoline]
- Oct3/4 immunostaining of preconditioned cells [1]: Oct3/4-positive
- proportion of Chx10-positive cells in the total cells [2, 7]: about 60%
- proportion of Rx-positive cells in the total cells [2, 7]: about 60%
- Rx-strong positive (corresponding to retina) [2, 8]: less than 3%
- Rx-weak positive (corresponding to neural tissue other than retina) [2, 8]: less than 7%
- proportion of Chx10-positive cells [2, 8]: less than 3%
- proportion of Rx-positive cells in the total cells [2, 8]: less than 10%
- proportion of Chx10-positive cells in the total cells [2, 6]: ≥ 40%
- proportion of Rx-positive cells in the total cells [2, 6]: ≥ 50%
- shape of cell aggregate in step 3 compared with untreated group [3]: good shape of a cell aggregate

— patent US12492373B2, “Production method for nerve tissue” (Racthera Co., Ltd., priority 2014, dated 2025)
